The record followed here is ChEMBL document CHEMBL1151287, “Discorhabdin W, the first dimeric discorhabdin” (J Nat Prod, 2005).

For this assay, the system named is P388. The assay can be described thus: Cytotoxicity against mouse P388 cells. The format is functional, cell-based.

For `O=C1C=C[C@@]23C[C@@H](NC4=C2C2=NCCc5c[nH]c(c52)C4=O)SC3=C1`, 510 nM corresponded to half-maximal inhibition (IC50).

`O=C1C=C2S[C@H]3C[C@]2(C=C1Br)C1=C(N3)C(=O)c2[nH]cc3c2C1=NCC3` [DISCORHABDIN B] returned a 50% inhibitory concentration (IC50) of 87 nM.

Regarding `O=C1C2=C3C4=[N+](CCc5c[nH]c1c54)[C@H]1C[C@@]34C[C@@H](N2)SC4=CC1=O` [DISCORHABDIN D], the IC50 was 1600 nM.

Compound `O=C1C2=C3C4=[N+](CCc5c[nH]c1c54)[C@@H]1C(=O)C=C4S[C@@H](C[C@@]43[C@H]1O)N2` [DISCORHABDIN L] yielded an IC50 of 1100 nM.

For `O=C1C=C(SSC2=CC(=O)C(Br)=C[C@]23C=CNC2=C3C3=NCCc4c[nH]c(c43)C2=O)[C@@]2(C=CNC3=C2C2=NCCc4c[nH]c(c42)C3=O)C=C1Br` [DISCORHABDIN W], the IC50 amounted to 84 nM.

Usually IC50 stands for the concentration needed to halve the response being measured. Lower therefore signals inhibition by little substance.
